Test results from patent US10399940B2, “Substituted pyrrolidines and methods of use” (AbbVie S.à.r.l., priority 2016, dated 2019).
Read-outs that look alike come from different tables or passages of the source.

Target: T1, F508delCFTR (Homo sapiens, UniProt P13569, DEL508-508)
T1 construct: expressed in transfected cells; host or cells: CFBE41o- (human lung derived epithelial cell line), doxycycline-inducible expression
Assay: Cell Surface Expression-Horse Radish Peroxidase (CSE-HRP) assay
Assay type: cell-based
Settings: CFBE41o-F508delCFTR-HRP cells; for Maximum % activity (with co-corrector): with co-corrector (2 μM); for Maximum % activity (with co-corrector) / Maximum % activity (without co-corrector): normalized to on-plate positive control, highest concentration 20 μM
Procedure, shortened: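 CFBE41o- cells expressed F508delCFTR with HRP in the fourth exofacial loop, induced by 0.5 μg/mL doxycycline for 72 h at 37 °C. Compounds alone or with 2 μM co-corrector ran 18–24 h at 33 °C, 8-point 3-fold from 20 μM. Washed-cell luminol luminescence was normalized to DMSO and positive control, fitted sigmoidally for EC50 (three plates).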

[1] = test compound without co-corrector, 18-24 hours at 33° C., read-out: EC50 (without co-corrector)
[2] = with co-corrector (2 μM of 3-[(2R,4R)-4-({[1-(2,2-difluoro-1,3-benzodioxol-5-yl)cyclopropyl]carbonyl}amino)-7-methoxy-3,4-dihydro-2H-chromen-2-yl]benzoic acid), read-out: EC50 (with co-corrector)

T1 sequence (P13569 with tags, fused parts or gaps DEL508-508): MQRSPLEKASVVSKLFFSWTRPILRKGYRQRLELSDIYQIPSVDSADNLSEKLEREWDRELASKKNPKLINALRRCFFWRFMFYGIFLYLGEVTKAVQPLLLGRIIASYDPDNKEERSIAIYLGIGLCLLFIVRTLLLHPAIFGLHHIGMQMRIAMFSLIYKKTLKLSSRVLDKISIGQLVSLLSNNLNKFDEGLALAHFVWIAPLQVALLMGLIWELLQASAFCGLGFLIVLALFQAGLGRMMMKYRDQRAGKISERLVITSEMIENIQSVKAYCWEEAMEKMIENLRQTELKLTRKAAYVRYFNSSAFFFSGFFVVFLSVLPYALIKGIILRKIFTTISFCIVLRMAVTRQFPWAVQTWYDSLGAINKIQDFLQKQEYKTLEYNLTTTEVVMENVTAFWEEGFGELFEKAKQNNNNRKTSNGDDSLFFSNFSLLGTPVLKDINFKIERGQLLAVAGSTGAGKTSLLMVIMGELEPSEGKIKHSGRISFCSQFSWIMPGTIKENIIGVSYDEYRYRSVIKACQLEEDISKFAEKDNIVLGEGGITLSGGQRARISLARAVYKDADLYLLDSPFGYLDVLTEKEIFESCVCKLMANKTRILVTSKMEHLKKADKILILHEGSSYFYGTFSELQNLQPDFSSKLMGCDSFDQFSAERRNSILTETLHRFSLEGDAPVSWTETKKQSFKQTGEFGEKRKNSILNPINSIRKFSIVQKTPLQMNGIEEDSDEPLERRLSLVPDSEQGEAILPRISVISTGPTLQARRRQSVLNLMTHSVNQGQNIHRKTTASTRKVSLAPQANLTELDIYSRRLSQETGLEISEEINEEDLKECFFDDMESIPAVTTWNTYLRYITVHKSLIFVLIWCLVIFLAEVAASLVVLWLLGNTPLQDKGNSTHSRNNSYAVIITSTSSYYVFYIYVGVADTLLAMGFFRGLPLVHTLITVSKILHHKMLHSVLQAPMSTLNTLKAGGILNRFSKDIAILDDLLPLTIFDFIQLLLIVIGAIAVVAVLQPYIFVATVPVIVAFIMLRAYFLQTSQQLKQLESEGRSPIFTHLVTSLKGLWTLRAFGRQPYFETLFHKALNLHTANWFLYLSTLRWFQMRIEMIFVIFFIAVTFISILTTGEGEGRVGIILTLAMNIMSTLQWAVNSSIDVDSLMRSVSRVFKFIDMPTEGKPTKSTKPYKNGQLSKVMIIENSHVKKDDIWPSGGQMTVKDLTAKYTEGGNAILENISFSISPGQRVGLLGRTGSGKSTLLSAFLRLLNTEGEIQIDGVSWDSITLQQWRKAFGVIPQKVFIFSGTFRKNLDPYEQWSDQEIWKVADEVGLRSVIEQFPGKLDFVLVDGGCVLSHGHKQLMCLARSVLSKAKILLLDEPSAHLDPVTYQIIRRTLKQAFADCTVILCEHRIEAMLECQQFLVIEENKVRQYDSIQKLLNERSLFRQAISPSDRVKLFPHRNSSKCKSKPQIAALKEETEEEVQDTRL

Compound | EC50 [1] [µM] | EC50 [2] [µM] | Maximum % activity (with co-corrector) | Maximum % activity (without co-corrector)
COc1ncc(C(F)(F)F)cc1CO[C@@H]1[C@H](C(C)(C)C)[C@@H](C(=O)O)N(C(=O)C2CCCC2)[C@H]1c1cccnc1OC(C)C [Example 163, (2S,3R,4R,5S)-3-tert-butyl-1-(cyclopentanecarbonyl)-4-{[2-methoxy-5-(trifluoromethyl)pyridin-3-yl]methoxy}-5-{2-[(propan-2-yl)oxy]pyridin-3-yl}pyrrolidine-2-carboxylic acid] | > 10 | > 10 | + (<150) | + (<100)
COc1ncc(C2=CCOCC2)cc1CO[C@H]1[C@H](C(C)(C)C)[C@@H](C(=O)O)N(C(=O)OC(C)C)[C@H]1c1ccccc1 [Example 69, (2S,3R,4S,5S)-3-tert-butyl-4-{[5-(3,6-dihydro-2H-pyran-4-yl)-2-methoxypyridin-3-yl]methoxy}-5-phenyl-1-{[(propan-2-yl)oxy]carbonyl}pyrrolidine-2-carboxylic acid] | 1 to 10 | 1 to 10 | ++ (≥150 and <350) | + (<100)
COc1ccc(C(F)(F)F)cc1CO[C@H]1[C@H](C(C)(C)C)[C@@H](C(=O)O)N(C(=O)C2CCCCC2)[C@H]1c1ccccc1F [Example 49, (2S,3R,4S,5S)-3-tert-butyl-1-(cyclohexanecarbonyl)-5-(2-fluorophenyl)-4-{[2-methoxy-5-(trifluoromethyl)phenyl]methoxy}pyrrolidine-2-carboxylic acid] | 1 to 10 | 1 to 10 | +++ (≥350) | ++ (≥100 and <200)
COc1nc2ccccc2cc1CO[C@H]1[C@H](C(C)(C)C)[C@@H](C(=O)O)N(C(=O)[C@@H]2CCCCO2)[C@H]1c1ccccc1C(C)C [Example 132, (2S,3R,4S,5S)-3-tert-butyl-4-[(2-methoxyquinolin-3-yl)methoxy]-1-[(2S)-oxane-2-carbonyl]-5-[2-(propan-2-yl)phenyl]pyrrolidine-2-carboxylic acid] | 1 to 10 | < 1 | +++ (≥350) | ++ (≥100 and <200)
COc1ccc(C(F)(F)F)cc1CO[C@H]1[C@H](C(C)(C)C)[C@@H](C(=O)O)N(C(=O)[C@@H]2CCC[C@@H](OC)C2)[C@H]1c1ccccc1 [Example 31, (2S,3R,4S,5S)-3-tert-butyl-1-[(1R,3R)-3-methoxycyclohexane-1-carbonyl]-4-{[2-methoxy-5-(trifluoromethyl)phenyl]methoxy}-5-phenylpyrrolidine-2-carboxylic acid] | 1 to 10 | < 1 | +++ (≥350) | +++ (≥200)
COc1ncc(C(F)(F)F)cc1CO[C@H]1[C@H](C(C)(C)C)[C@@H](C(=O)O)N(C(=O)OC(C)C)[C@H]1c1ccccc1C1CC1 [Example 92, (2S,3R,4S,5S)-3-tert-butyl-5-(2-cyclopropylphenyl)-4-{[2-methoxy-5-(trifluoromethyl)pyridin-3-yl]methoxy}-1-{[(propan-2-yl)oxy]carbonyl}pyrrolidine-2-carboxylic acid] | 1 to 10 | 1 to 10 | +++ (≥350) | ++ (≥100 and <200)
COc1ncc(C(F)(F)F)cc1CO[C@H]1[C@H](C(C)(C)C)[C@@H](C(=O)O)N(C(=O)OC(C)C)[C@H]1c1ccccc1C(C)C [Example 87, (2S,3R,4S,5S)-3-tert-butyl-4-{[2-methoxy-5-(trifluoromethyl)pyridin-3-yl]methoxy}-1-{[(propan-2-yl)oxy]carbonyl}-5-[2-(propan-2-yl)phenyl]pyrrolidine-2-carboxylic acid] | 1 to 10 | 1 to 10 | +++ (≥350) | ++ (≥100 and <200)
COc1cnc(C2CCC2)cc1CO[C@H]1[C@H](C(C)(C)C)[C@@H](C(=O)O)N(C(=O)OC(C)C)[C@H]1c1ccccc1 [Example 100, (2S,3R,4S,5S)-3-tert-butyl-4-[(2-cyclobutyl-5-methoxypyridin-4-yl)methoxy]-5-phenyl-1-{[(propan-2-yl)oxy]carbonyl}pyrrolidine-2-carboxylic acid] | 1 to 10 | 1 to 10 | ++ (≥150 and <350) | + (<100)
COc1ncc(C(F)(F)F)cc1CO[C@H]1[C@H](C(C)(C)C)[C@@H](C(=O)O)N(C(=O)OC(C)C)[C@H]1c1ccccc1Cl [Example 99, (2S,3R,4S,5S)-3-tert-butyl-5-(2-chlorophenyl)-4-{[2-methoxy-5-(trifluoromethyl)pyridin-3-yl]methoxy}-1-{[(propan-2-yl)oxy]carbonyl}pyrrolidine-2-carboxylic acid] | 1 to 10 | 1 to 10 | +++ (≥350) | ++ (≥100 and <200)
COc1ncc(C(F)(F)F)cc1CO[C@H]1[C@H](C(C)(C)C)[C@@H](C(=O)O)N(C(=O)OC(C)C)[C@H]1c1ccccc1 [Example 64, (2S,3R,4S,5S)-3-tert-butyl-4-{[2-methoxy-5-(trifluoromethyl)pyridin-3-yl]methoxy}-5-phenyl-1-{[(propan-2-yl)oxy]carbonyl}pyrrolidine-2-carboxylic acid] | 1 to 10 | 1 to 10 | +++ (≥350) | ++ (≥100 and <200)

Next, values leading:

EC50 [1] [µM] | EC50 [2] [µM] | Maximum % activity (with co-corrector) | Maximum % activity (without co-corrector) | Compound
1 to 10 | 1 to 10 | +++ (≥350) | + (<100) | COc1ncc(-c2ccc(C)cc2)cc1CO[C@H]1[C@H](C(C)(C)C)[C@@H](C(=O)O)N(C(=O)OC(C)C)[C@H]1c1ccccc1 [Example 71, (2S,3R,4S,5S)-3-tert-butyl-4-{[2-methoxy-5-(4-methylphenyl)pyridin-3-yl]methoxy}-5-phenyl-1-{[(propan-2-yl)oxy]carbonyl}pyrrolidine-2-carboxylic acid]
1 to 10 | 1 to 10 | ++ (≥150 and <350) | + (<100) | COc1nc2ccccc2cc1CO[C@H]1[C@H](C(C)(C)C)[C@@H](C(=O)O)N(C(=O)OC(C)C)[C@H]1c1ccccc1 [Example 106, (2S,3R,4S,5S)-3-tert-butyl-4-[(2-methoxyquinolin-3-yl)methoxy]-5-phenyl-1-{[(propan-2-yl)oxy]carbonyl}pyrrolidine-2-carboxylic acid]
< 1 | < 1 | +++ (≥350) | ++ (≥100 and <200) | COc1ncc(C(C)(C)C)cc1CO[C@H]1[C@H](C(C)(C)C)[C@@H](C(=O)O)N(C(=O)C2CCCCC2)[C@H]1c1cccnc1OC(C)C [Example 250, (2S,3R,4S,5S)-3-tert-butyl-4-[(5-tert-butyl-2-methoxypyridin-3-yl)methoxy]-1-(cyclohexanecarbonyl)-5-{2-[(propan-2-yl)oxy]pyridin-3-yl}pyrrolidine-2-carboxylic acid]
1 to 10 | 1 to 10 | +++ (≥350) | + (<100) | COc1nc(C(C)(C)C)ccc1CO[C@H]1[C@H](C(C)(C)C)[C@@H](C(=O)O)N(C(=O)OC(C)C)[C@H]1c1ccccc1 [Example 72, (2S,3R,4S,5S)-3-tert-butyl-4-[(6-tert-butyl-2-methoxypyridin-3-yl)methoxy]-5-phenyl-1-{[(propan-2-yl)oxy]carbonyl}pyrrolidine-2-carboxylic acid]
1 to 10 | 1 to 10 | +++ (≥350) | ++ (≥100 and <200) | COc1ncc(C2CCCC2)cc1CO[C@H]1[C@H](C(C)(C)C)[C@@H](C(=O)O)N(C(=O)C2CCCCC2)[C@H]1c1ccccc1F [Example 57, (2S,3R,4S,5S)-3-tert-butyl-1-(cyclohexanecarbonyl)-4-[(5-cyclopentyl-2-methoxypyridin-3-yl)methoxy]-5-(2-fluorophenyl)pyrrolidine-2-carboxylic acid]
< 1 | < 1 | +++ (≥350) | +++ (≥200) | [2H]C([2H])([2H])Oc1ccc(C(F)(F)F)cc1C([2H])([2H])O[C@H]1[C@H](C(C)(C)C)[C@@H](C(=O)O)N(C(=O)[C@@H]2CCCCO2)[C@H]1c1ccccc1C [Example 234, (2S,3R,4S,5S)-3-tert-butyl-4-{[{2-[(^2H3)methyloxy]-5-(trifluoromethyl)phenyl}(^2H2)methyl]oxy}-5-(2-methylphenyl)-1-[(2S)-oxane-2-carbonyl]pyrrolidine-2-carboxylic acid]
< 1 | < 1 | +++ (≥350) | +++ (≥200) | CCc1ccccc1[C@H]1[C@@H](OCc2ccc(C(F)(F)F)cc2OC)[C@H](C(C)(C)C)[C@@H](C(=O)O)N1C(=O)[C@@H]1CCCCO1 [Example 184, (2S,3R,4S,5S)-3-tert-butyl-5-(2-ethylphenyl)-4-{[2-methoxy-4-(trifluoromethyl)phenyl]methoxy}-1-[(2S)-oxane-2-carbonyl]pyrrolidine-2-carboxylic acid]
